Values quoted from earlier work as cited in paper PMC6601333 (Biochemical and biophysical research communications, 2019).

SMILES | inhibition of HIV-2 PR, fold worse than for HIV-1 PR (HIV-2 PR; relative to HIV-1 PR) [fold] | inhibition of HIV-1 PR (in words) (wild type HIV-1 PR) | inhibition of HIV-2 PR (in words) (HIV-2 PR)
CC(C)CN(C[C@@H](O)[C@H](Cc1ccccc1)NC(=O)O[C@H]1CCOC1)S(=O)(=O)c1ccc(N)cc1 [APV, amprenavir] | 19 |  | 
CC(C)(C)NC(=O)[C@@H]1C[C@@H]2CCCC[C@@H]2CN1C[C@@H](O)[C@H](Cc1ccccc1)NC(=O)[C@H](CC(N)=O)NC(=O)c1ccc2ccccc2n1 [SQV, saquinavir] |  | effective inhibitors | effective inhibitors
CC(C)CN(C[C@@H](O)[C@H](Cc1ccccc1)NC(=O)O[C@H]1CO[C@H]2OCC[C@H]21)S(=O)(=O)c1ccc(N)cc1 [DRV, darunavir] |  | effective inhibitors | effective inhibitors
